In patent US9844550B2, “Phtalazinone derivatives and manufacturing process thereof” (ILDONG PHARM CO., LTD., priority 2013, dated 2017):

Legend:
[1] = tested on: MDA-MB-436 breast cancer cell line; experiment: Cell viability assay (MDA-MB-436); assay type: cell-based; details: Homo sapiens, 144 h; MDA-MB-436 cells, treated 6 days
Experimental: 2. Cell Viability Assay (MDA-MB-436)
(§1) Cell viability assay was performed by using MDA-MB-436 cell line to measure cytotoxicity of compounds in the present invention. MDA-MB-436 breast cancer cell line was seeded into 96-well plates at 37° C. under 5% CO2 atmosphere using DMEM/F12 (Gibco) containing 10% FBS (Hyclone). After 24 hr incubation, cells were treated with the invented compounds at various concentrations for 6 days. The medium was changed every 3 day. 6 days later, A fluorescence reagent was used to determine the IC50 values.

[2] = tested on: Capan-1 pancreatic cancer cell line; experiment: Cell viability assay (Capan-1); assay type: cell-based; details: Homo sapiens, 240 h; Capan-1 cells, treated 10 days
Experimental: 3. Cell Viability Assay (Capan-1)
as §1, with “using Capan-1” for “using MDA-MB-436”, “invention. Capan-1 pancreatic” for “invention. MDA-MB-436 breast”, “using IMDM (Sigma)” for “using DMEM/F12 (Gibco)”, “for 10” for “for 6”, “days. After 7-day incubation, the” for “days. The”, “was changed. 10” for “was changed every 3 day. 6”

Mouse pharmacokinetics = assay type: in vivo; set-up: concentration or dose not given beside the values; details: Balb/c male mice, blood samples 15 to 1140 min, LC-MS/MS
Experimental: To evaluate the pharmacokinetics test, the invented compounds (from I-25 to I-1171) were determined as follows. Blood samples are collected at 15, 30, 60, 120, 240, 480, 1140 min. Quantification is by using a LC-MS/MS method specific to the selected compound. Pharmacokinetics parameters are calculated using WinNonLinnon compartmental analysis software.

O=C(c1cc(Cc2n[nH]c(=O)c3ccccc23)ccc1F)N1CC(NC2CCC2)C1 [Compound I-25, 4-(3-(3-(cyclobutylamino)azetidine-1-carbonyl)-4-fluorobenzyl)phthalazin-1(2H)-one]
IC50 [1]: 5 to 50 nM
IC50 [2]: 300 to 1000 nM
AUC (Mouse pharmacokinetics): 831 ng·h/mL

O=C(c1cc(Cc2n[nH]c(=O)c3ccccc23)ccc1F)N1CC(CNC2CCC2)C1 [Compound I-148, 4-(3-(3-((cyclobutylamino)methyl)azetidine-1-carbonyl)-4-fluorobenzyl)phthalazin-1(2H)-one]
IC50 [1]: ≤ 5 nM
AUC (Mouse pharmacokinetics): 472 ng·h/mL

O=C(c1cc(Cc2n[nH]c(=O)c3ccccc23)ccc1F)N1CC(CN2CCCC2)C1 [Compound I-140, 4-(4-fluoro-3-(3-(pyrrolidin-1-ylmethyl)azetidine-1-carbonyl)benzyl)phthalazin-1(2H)-one]
IC50 [1]: ≤ 5 nM
IC50 [2]: 300 to 1000 nM
AUC (Mouse pharmacokinetics): 295 ng·h/mL

CC(C)C(C)NC1CN(C(=O)c2cc(Cc3n[nH]c(=O)c4ccccc34)ccc2F)C1 (stereo not shown) [Compound I-41, 4-(4-fluoro-3-(3-((3-methylbutan-2-yl)amino)azetidine-1-carbonyl)benzyl)phthalazin-1(2H)-one]
IC50 [1]: ≤ 5 nM
IC50 [2]: 300 to 1000 nM

O=C(c1cc(Cc2n[nH]c(=O)c3ccccc23)ccc1F)N1CC[C@@H](N2CCC2)C1 [Compound I-135, (R)-4-(3-(3-(azetidin-1-yl)pyrrolidine-1-carbonyl)-4-fluorobenzyl)phthalazin-1(2H)-one]
IC50 [1]: 5 to 50 nM
AUC (Mouse pharmacokinetics): 153 ng·h/mL

O=C(c1cc(Cc2n[nH]c(=O)c3ccccc23)ccc1F)N1CC[C@@H](NC2CCCC2)C1 [Compound I-31, (R)-4-(3-(3-(cyclopentylamino)pyrrolidine-1-carbonyl)-4-fluorobenzyl)phthalazin-1(2H)-one]
IC50 [1]: 5 to 50 nM
IC50 [2]: 50 to 300 nM

O=C(c1cc(Cc2n[nH]c(=O)c3ccccc23)ccc1F)N1CC(NC2CCCCC2)C1 [Compound I-28, 4-(3-(3-(cyclohexylamino)azetidine-1-carbonyl)-4-fluorobenzyl)phthalazin-1(2H)-one]
IC50 [1]: 5 to 50 nM
IC50 [2]: 300 to 1000 nM

O=C(c1cc(Cc2n[nH]c(=O)c3ccccc23)ccc1F)N1CC(N2CCC2)C1 [Compound I-75, 4-(3-([1,3′-biazetidine]-1′-carbonyl)-4-fluorobenzyl)phthalazin-1(2H)-one]
IC50 [1]: 5 to 50 nM
AUC (Mouse pharmacokinetics): 475 ng·h/mL

O=C(c1cc(Cc2n[nH]c(=O)c3ccccc23)ccc1F)N1CC(CNC2CC2)C1 [Compound I-143, 4-(3-(3-((cyclopropylamino)methyl)azetidine-1-carbonyl)-4-fluorobenzyl)phthalazin-1(2H)-one]
IC50 [1]: ≤ 5 nM
IC50 [2]: 50 to 300 nM
AUC (Mouse pharmacokinetics): 673 ng·h/mL

O=C(c1cc(Cc2n[nH]c(=O)c3ccccc23)ccc1F)N1CC[C@@H](Nc2cc(C(F)(F)F)ccn2)C1 [Compound I-132, (R)-4-(4-fluoro-3-(3-((4-(trifluoromethyl)pyridin-2-yl)amino)pyrrolidine-1-carbonyl)benzyl)phthalazin-1(2H)-one]
IC50 [1]: ≤ 5 nM
IC50 [2]: 5 to 50 nM

O=C(c1cc(Cc2n[nH]c(=O)c3ccccc23)ccc1F)N1CC[C@@H](NC2CCC2)C1 [Compound I-30, (R)-4-(3-(3-(cyclobutylamino)pyrrolidine-1-carbonyl)-4-fluorobenzyl)phthalazin-1(2H)-one]
IC50 [1]: 50 to 300 nM
AUC (Mouse pharmacokinetics): 521 ng·h/mL

O=C(c1cc(Cc2n[nH]c(=O)c3ccccc23)ccc1F)N1CC(NC2CC2)C1 [Compound I-26, 4-(3-(3-(cyclopropylamino)azetidine-1-carbonyl)-4-fluorobenzyl)phthalazin-1(2H)-one]
IC50 [1]: 5 to 50 nM
IC50 [2]: 300 to 1000 nM
AUC (Mouse pharmacokinetics): 3350 ng·h/mL

O=C(c1cc(Cc2n[nH]c(=O)c3ccccc23)ccc1F)N1CC(CN2CCC2)C1 [Compound I-142, 4-(3-(3-(azetidin-1-ylmethyl)azetidine-1-carbonyl)-4-fluorobenzyl)phthalazin-1(2H)-one]
IC50 [1]: 5 to 50 nM
IC50 [2]: 300 to 1000 nM
AUC (Mouse pharmacokinetics): 88.8 ng·h/mL

O=C(c1cc(Cc2n[nH]c(=O)c3ccccc23)ccc1F)N1CC(CN2CCCCC2)C1 [Compound I-141, 4-(4-fluoro-3-(3-(piperidin-1-ylmethyl)azetidine-1-carbonyl)benzyl)phthalazin-1(2H)-one]
IC50 [1]: 5 to 50 nM
IC50 [2]: 300 to 1000 nM
AUC (Mouse pharmacokinetics): 193 ng·h/mL

COC[C@H](C)NC1CN(C(=O)c2cc(Cc3n[nH]c(=O)c4ccccc34)ccc2F)C1 [Compound I-82, (S)-4-(4-fluoro-3-(3-((1-methoxypropan-2-yl)amino)azetidine-1-carbonyl)benzyl)phthalazin-1(2H)-one]
IC50 [1]: 5 to 50 nM
IC50 [2]: 300 to 1000 nM

CC(CO)NC1CN(C(=O)c2cc(Cc3n[nH]c(=O)c4ccccc34)ccc2F)C1 (stereo not shown) [Compound I-36, 4-(4-fluoro-3-(3-((1-hydroxypropan-2-yl)amino)azetidine-1-carbonyl)benzyl)phthalazin-1(2H)-one]
IC50 [1]: 5 to 50 nM
IC50 [2]: 300 to 1000 nM

O=C(c1cc(Cc2n[nH]c(=O)c3ccccc23)ccc1F)N1CC(NC2CC3CCC2C3)C1 (stereo not shown) [Compound I-43, 4-(3-(3-(bicyclo[2.2.1]heptan-2-ylamino)azetidine-1-carbonyl)-4-fluorobenzyl)phthalazin-1(2H)-one]
IC50 [1]: 5 to 50 nM
IC50 [2]: 300 to 1000 nM

CC(C#N)NC1CN(C(=O)c2cc(Cc3n[nH]c(=O)c4ccccc34)ccc2F)C1 (stereo not shown) [Compound I-100, 2-((1-(2-fluoro-5-((4-oxo-3,4-dihydrophthalazin-1-yl)methyl)benzoyl)azetidin-3-yl)amino)propanenitrile]
IC50 [1]: 300 to 1000 nM
IC50 [2]: 300 to 1000 nM

CCC(CC)NC1CN(C(=O)c2cc(Cc3n[nH]c(=O)c4ccccc34)ccc2F)C1 [Compound I-40, 4-(4-fluoro-3-(3-(pentan-3-ylamino)azetidine-1-carbonyl)benzyl)phthalazin-1(2H)-one]
IC50 [1]: 5 to 50 nM
IC50 [2]: 300 to 1000 nM

O=C(c1cc(Cc2n[nH]c(=O)c3ccccc23)ccc1F)N1CC[C@@H](Nc2ncccn2)C1 [Compound I-120, (R)-4-(4-fluoro-3-(3-(Pyrimidin-2-ylamino)pyrrolidine-1-carbonyl)benzyl)phthalazin-1(2H)-one]
IC50 [1]: ≤ 5 nM
AUC (Mouse pharmacokinetics): 510 ng·h/mL

CC(NC1CN(C(=O)c2cc(Cc3n[nH]c(=O)c4ccccc34)ccc2F)C1)C1CC1 (stereo not shown) [Compound I-42, 4-(3-(3-((1-cyclopropylethyl)amino)azetidine-1-carbonyl)-4-fluorobenzyl)phthalazin-1(2H)-one]
IC50 [1]: ≤ 5 nM
IC50 [2]: 300 to 1000 nM

CCC(C)NC1CN(C(=O)c2cc(Cc3n[nH]c(=O)c4ccccc34)ccc2F)C1 (stereo not shown) [Compound I-44, 4-(3-(3-(sec-butylamino)azetidine-1-carbonyl)-4-fluorobenzyl)phthalazin-1(2H)-one]
IC50 [1]: ≤ 5 nM
IC50 [2]: 300 to 1000 nM

CC(C)CC(C)NC1CN(C(=O)c2cc(Cc3n[nH]c(=O)c4ccccc34)ccc2F)C1 (stereo not shown) [Compound I-46, 4-(4-fluoro-3-(3-((4-methylpentan-2-yl)amino)azetidine-1-carbonyl)benzyl)phthalazin-1(2H)-one]
IC50 [1]: 5 to 50 nM

O=C(c1cc(Cc2n[nH]c(=O)c3ccccc23)ccc1F)N1CC(N(c2ncccn2)C2CCC2)C1 [Compound I-116, 4-(3-(3-(cyclobutyl(pyrimidin-2-yl)amino)azetidine-1-carbonyl)-4-fluorobenzyl)phthalazin-1(2H)-one]
IC50 [1]: 300 to 1000 nM

CN(c1cccnn1)[C@H]1CCN(C(=O)c2cc(Cc3n[nH]c(=O)c4ccccc34)ccc2F)C1 [Compound I-113, (S)-4-(4-fluoro-3-(3-(methyl(pyridazin-3-yl)amino)pyrrolidine-1-carbonyl)benzyl)phthalazin-1(2H)-one]
IC50 [1]: 300 to 1000 nM

O=C(c1cc(Cc2n[nH]c(=O)c3ccccc23)ccc1F)N1CC(C(=O)N2CCCC2)C1 [Compound I-22, 4-(4-fluoro-3-(3-(pyrrolidine-1-carbonyl)azetidine-1-carbonyl)benzyl)phthalazin-1(2H)-one]
IC50 [1]: 50 to 300 nM

O=C(c1cc(Cc2n[nH]c(=O)c3ccccc23)ccc1F)N1CC(NC2(CO)CC2)C1 [Compound I-84, 4-(4-fluoro-3-(3-((1-(hydroxymethyl)cyclopropyl)amino)azetidine-1-carbonyl)benzyl)phthalazin-1(2H)-one]
IC50 [1]: 50 to 300 nM

O=C(c1cc(Cc2n[nH]c(=O)c3ccccc23)ccc1F)N1CC(CNCC2CC2)C1 [Compound I-145, 4-(3-(3-(((cyclopropylmethyl)amino)methyl)azetidine-1-carbonyl)-4-fluorobenzyl)phthalazin-1(2H)-one]
IC50 [1]: 5 to 50 nM

O=C(c1cc(Cc2n[nH]c(=O)c3ccccc23)ccc1F)N1CC(NC(C2CC2)C2CC2)C1 [Compound I-45, 4-(3-(3-((dicyclopropylmethyl)amino)azetidine-1-carbonyl)-4-fluorobenzyl)phthalazin-1(2H)-one]
IC50 [1]: 5 to 50 nM

CCN(c1ncccn1)[C@@H]1CCN(C(=O)c2cc(Cc3n[nH]c(=O)c4ccccc34)ccc2F)C1 [Compound I-121, (R)-4-(3-(3-(ethyl(pyrimidin-2-yl)amino)pyrrolidine-1-carbonyl)-4-fluorobenzyl)phthalazin-1(2H)-one]
IC50 [1]: 300 to 1000 nM
